{"source": "patent US6589564B2", "about": "“Use of magnesium based products for the treatment of neoplastic diseases” (priority 1994, dated 2003)", "key": {"[1]": {"tested_on": "infiltrating ulcerated adenocarcinoma (rectum)", "protocol": "The patient refused any therapy for a month and then started a magnesium treatment consisting of a daily administration of 500 cm^3 of physiologic solution, containing 6 g of magnesium pyrophosphate (i.e., 489 mg of Mg^++ daily, that is equivalent to about 9.7 mg of Mg^++/kg body weight daily). The infusion rate was adjusted to supply the patient with 80 mg of magnesium ions per hour for about 6 hours. Furthermore, a daily amount of 1200 mg of vitamin B6 was associated (vitamin B6:Mg^++=2.5:1), in four separate administrations.\nAfter one month of intravenous treatment, the therapy was continued orally, with 6 g of magnesium pyrophosphate daily (i.e., 488 mg of Mg^++ daily, corresponding to 9.7 mg of Mg^++/kg body weight daily), associated with […] of vitamin B6 in divided doses."}, "[2]": {"tested_on": "rheumatoid arthritis", "conditions": "for ESR: before therapy 55, normal range 1-15", "protocol": "The magnesium therapy, that the patient started in a disease remission interval, consisted of daily administations of 6 g of magnesium pyrophosphate (equivalent to 489 mg of Mg^++, corresponding to 8.1 mg of Mg^++/kg body weight daily), by infusion in 500 cm^3 of physiologic solution. The infusion rate was adjusted to supply 80 mg of Mg^++ per hour for about 6 hours. Vitamin B6 was associated with magnesium in the 2.5:1 ratio, i.e. in an amount of 1200 mg daily in divided doses, in order to improve the magnesium uptake. Suitable analgesic and anti-inflammatory drugs (FANS) were prescribed to soothe the articulation pains\nAt this point the parenteral treatment was suspended and an oral therapy started with following dosage: 6 g of magnesium pyrophosphate daily in divided doses (i.e., 488 mg of Mg^++ daily, corresponding to 8.1 mg of Mg^++/kg body weight daily), as well as […] of vitamin B6 orally, also in divided doses."}, "[3]": {"tested_on": "pemphigus vulgaris", "protocol": "A patient was affected since three years by a pemphigus vulgaris, that caused soft vesicles to form on the patient's face and scalp. The vesicles broke after forming, and gave rise to circular erosions, that later were covered by scabs. Then, the said lesions appeared also on the patient's trunk and oral mucosa.\nThe therapy consisted in daily administering 9 g of magnesium pyrophosphate (i.e., 733 mg of Mg^++, corresponding to 9.16 mg/kg body weight daily of magnesium ions), dissolved into 500 cm^3 of a physiologic solution. The infusion rate was adjusted to supply 80 mg of Mg^++ per hour for about 9 hours.\nMoreover, 1800 mg of vitamin B6 were administered daily, in divided doses."}, "[4]": {"tested_on": "ulcerative colitis", "protocol": "The treatment comprised the parenteral administration of 6 g of magnesium pyrophosphate (489 mg of Mg^++, i.e., 8.89 mg of Mg^++/kg body weight daily), diluted into 500 cm^3 of physiologic solution, and the infusion was adjusted to supply the patient with 80 mg of Mg^++ per hour for 6 hours. […] of orally administered vitamin B6 were added in divided doses, to improve the magnesium uptake."}, "[5]": {"conditions": "end of fourth month, negative normally, before therapy positive"}, "[6]": {"conditions": "after one further month (three months)"}}, "note": "Where two headings read alike, the source gives them in different places.", "data": [{"compound": "O=P([O-])([O-])OP(=O)([O-])[O-].[Mg+2].[Mg+2]", "note": "[magnesium pyrophosphate]", "values": [{"measurement": "tumor area at rectoscopy and tomography", "setting": "[1]; end of fifth month of treatment", "result": "totally disappeared"}, {"measurement": "tumor area", "setting": "[1]; end of fourth month of therapy", "result": "further reduced"}, {"measurement": "diameter of residual tumor area", "setting": "[1]; end of third month of magnesium therapy, point at 3 o'clock", "result": 1.5, "unit": "cm"}, {"measurement": "tumoral tissue at rectum investigation and rectoscopy", "setting": "[1]; end of third month, 6 g/day, 1 month i.v. then oral, with vitamin B6 1200 mg/day", "result": "had disappeared from the whole rectum circumference, except from a point at 3 o'clock"}, {"measurement": "ESR", "setting": "[2]; end of first month, 6 g/day by infusion with vitamin B6", "result": 42}, {"measurement": "articulation pains and swelling", "setting": "[2]; end of first month, 6 g/day by infusion with vitamin B6 and FANS", "result": "less pains at affected articulations, which appeared less swollen"}, {"measurement": "articulation tumescence, pains, morning rigidity", "setting": "[2]; end of fourth month of treatment (1 month i.v., then oral 6 g/day)", "result": "any articulation tumescence had disappeared and the patient referred neither articulation pains nor morning articulation rigidity"}, {"measurement": "ANA antibody research", "setting": "[2]; [5]", "result": "negative"}, {"measurement": "Waaler-Rose's reaction", "setting": "[2]; [5]", "result": "negative"}, {"measurement": "reactive C protein", "setting": "[2]; end of fourth month, normal range 0-6, before therapy 15", "result": 2}, {"measurement": "rheuma test", "setting": "[2]; end of fourth month, normal range 0-40, before therapy 105", "result": 21}, {"measurement": "ESR", "setting": "[2]; end of fourth month", "result": 10}, {"measurement": "fibrinogen", "setting": "[2]; end of fourth month, normal range 123-370, before therapy 550", "result": 232}, {"measurement": "articular pains and cutaneous lesions", "setting": "[3]; after one month, 9 g/day by infusion with vitamin B6", "result": "less articular pains and cutaneous lesions onto non-erythematous skin"}, {"measurement": "scab lesions and articulation pains", "setting": "[3]; end of fourth month (1 month i.v., then oral 9 g/day with vitamin B6)", "result": "the trunk and limb scab lesions had disappeared, while scarce lesions were still present on the scalp"}, {"measurement": "articulation pains and skin lesions", "setting": "[3]; end of sixth month of treatment", "result": "the articulation pains had disappeared at all, as well as any skin lesions"}, {"measurement": "colonscopy, last 50 cm of the colon mucosa", "setting": "[4]; [6]", "result": "appeared normal"}, {"measurement": "histology test of colon mucosa and submucosa", "setting": "[4]; [6]", "result": "colon mucosa and submucosa were normal and any inflammatory infiltration had disappeared"}, {"measurement": "abdominal pains and diarrhoea", "setting": "[4]; after one further month (three months), same dosage", "result": "no more abdominal pains nor diarrhoea"}, {"measurement": "colonscopy, last 50 cm of the colon mucosa", "setting": "[4]; end of two month treatment", "result": "neither hyperaemic nor bleeding; and absence of microulcerative lesions"}, {"measurement": "diarrhoea, daily episodes", "setting": "[4]; end of two month treatment", "result": "two"}, {"measurement": "histology test of colon mucosa", "setting": "[4]; end of two month treatment", "result": "still showed the presence of inflammatory neutrophil infiltration in the colon mucosa"}, {"measurement": "abdominal pains", "setting": "[4]; end of two month treatment, 6 g/day parenteral with oral vitamin B6", "result": "no abdominal pains"}]}]}
